In patent US12296018B2, “Albumin binding peptide-drug (AlBiPeD) conjugates and methods of making and using same” (priority 2018, dated 2025):
Where “and” joins values, the source holds several entries; their conditions need not be identical. Identical values can stand only once.

Assays:
[1] = target: T1, human serum albumin (HSA) (Homo sapiens, UniProt P02768); assay: Isothermal titration calorimetry of ABD-Dox with HSA; type: binding; conditions: ITC, 37° C., PBS
T1 construct: purchased Sigma-Aldrich (St. Louis, MO)
Description: (§1) The gel was stained with SimplyBlue stain according to the manufacturer's instructions and imaged using the Gel Doc imaging system (Bio-Rad, Hercules, CA). Isothermal titration calorimetry was done using a standard volume Nano ITC from TA instruments (Lindon, Utah). […] The calorimetric data were analyzed by NanoAnalyze software (TA instruments, Lindon, UT) and were fit to an independent binding site model to compute the thermodynamic parameters including dissociation constant (KD), binding stoichiometry (n), enthalpy (ΔH), and entropy (ΔS).

[2] = target: T2, mouse serum albumin (MSA) (Mus musculus, UniProt P07724); assay: Native-PAGE mobility shift with MSA; type: binding; conditions: 1:1 molar ratio
T2 construct: purchased Sigma-Aldrich (St. Louis, MO)
Description: as §1

[3] = Intravenous pharmacokinetics in healthy BALB/c mice
Description: Pharmacokinetics and biodistribution Pharmacokinetics and biodistribution experiments were performed to study the concentration of ABD-Dox in blood and tissues over time following intravenous (i.v.) administration. For the pharmacokinetic study, ABD-Dox and Dox in PBS and AlDox in 10 mM sodium phosphate, 5% D-(+)-glucose, pH 5.8 were injected at 5 mg Dox Equiv. per kg of body weight (BW) into healthy BALB/c mice. 10 μL blood samples were collected at 40 s, 15 min and 30 min, and 2, 4, 8, 24, 48, 72 and 96 h post injection and were diluted into heparinized PBS (1 kUmL^−1), and centrifuged at 4,000 rcf, 10 min, 4° C. to collect the plasma. 10 μL of the plasma samples were then diluted in 490 μL of acidified isopropanol (0.075 M HCl, 10% water) and incubated overnight at 4° C. For the biodistribution study, ABD-Dox and Dox in PBS were injected at 5 mg Dox Equiv.kg^−1 BW into C26 tumor-bearing BALB/c mice. At 2 h, 24 h, and 72 h post-injection, mice were sacrificed and tumor, heart, lung, liver, spleen, kidney and muscle tissues were dissected, weighed, homogenized in acidified isopropanol using a Mini-Beadbeater (Biospec, Bartlesville, OK) with 2 mm diameter zirconia beads for 1-2 min, and were incubated overnight at 4° C. Following overnight incubation in acidified isopropanol, plasma and tissue samples were centrifuged at 16,000 rcf, 4° C. for 10 min and the supernatants were loaded onto black 96-well plates in duplicate and the Dox fluorescence was measured using on a Victor3 microplate reader (Perkin Elmer, Waltham, MA) with fluorescence excitation at 485 nm and emission at 590 nm. Tissues were also dissected from three untreated mice, processed in the same manner, serially diluted, and loaded on the plates to prepare a standard curve of fluorescence intensity versus the weight for each tissue from which the background tissue fluorescence was calculated and subtracted for each sample. Serial dilution of free Dox in acidified isopropanol was used as standard to quantify the Dox concentration as […] per liter of plasma (μM) and as the percent of the injected dose per gram (% ID g^−1) in the tumor and other tissues. Plasma concentrations of Dox Equiv. of ABD-Dox versus time were fit to a two-compartment model using SAAM II software (SAAM Institute, Seattle, WA) and the elimination half-life and the area-under-curve were computed. The tissue concentration of Dox. Equiv. of ABD-Dox and free Dox at each time point were compared in GraphPad Prism software (GraphPad, San Diego, CA) by Student's t-test with P<0.05 considered statistically significant.

[4] = tested on: C26 colon carcinoma tumors; assay: In vivo tumor regression, syngeneic C26 model; set-up: species or system BALB/c mice
Description: In vivo tumor regression For in vivo tumor implantation, C26 cells at 5×10^5 cells in 30 μL Minimum Essential Medium (MEM) (Invitrogen, Carlsbad, CA) and MIA PaCa-2 cells at 2×10^6 cells in 50 μL 10:90 v/v MEM: Matrigel matrix (Corning Inc, Corning, New York) were inoculated in the right flank of normal and athymic nude BALB/c mice, respectively. Tumor cells were allowed to grow until the tumor volume, calculated as π/6×length×width^2, reached 75-100 mm^3 for C26 tumors and 100-125 mm^3 for MIA PaCa-2 tumors. Tumor bearing mice were then treated with ABD-Dox at 10 and 20 mg Dox Equiv.kg^−1 BW, AlDox at 20 mg Dox Equiv.kg^−1 BW, and free Dox at 10 mgkg^−1 BW. Tumor volumes and body weights were monitored for 100 days after treatment and mice displaying excessive tumor volume (>[…]), body weight loss (>15%), or ill health were euthanized. Tumor growth and survival data were analyzed by GraphPad Prism software. Survival curves were generated with the Kaplan-Meier method and compared with the log-rank (Mantel-Cox) test. Tumor growth data were compared with a paired one-way ANOVA followed by Tukey-Kramer (Tukey's) post-hoc test. P<0.05 was considered as statistically significant.
For in vivo tumor regression studies, a single dose of ABD-Dox was injected via tail vein at 10 mg Dox Equiv.kg^−1 BW (MTD of free Dox) and 20 mg Dox Equiv.kg^−1 BW (MTD of ABD-Dox) in separate cohorts of BALB/c mice with s.c. C26 tumors or nude mice with s.c. MIA Paca-2 tumors. Free Dox was injected at its MTD of 10 mgkg-1 BW, and AlDox was injected at 20 mg Dox Equiv.kg^−1 BW, a dose that was reported to be safe in previous studies. All animals were injected when the tumors were 75-100 mm; in size for C26 tumors and 100-125 mm^3 for MIA PaCa-2 tumors.

[5] = single dose 10 mg Dox Equiv.kg^−1 BW
[6] = single dose 20 mg Dox Equiv.kg^−1 BW

T2 sequence (P07724 25-608): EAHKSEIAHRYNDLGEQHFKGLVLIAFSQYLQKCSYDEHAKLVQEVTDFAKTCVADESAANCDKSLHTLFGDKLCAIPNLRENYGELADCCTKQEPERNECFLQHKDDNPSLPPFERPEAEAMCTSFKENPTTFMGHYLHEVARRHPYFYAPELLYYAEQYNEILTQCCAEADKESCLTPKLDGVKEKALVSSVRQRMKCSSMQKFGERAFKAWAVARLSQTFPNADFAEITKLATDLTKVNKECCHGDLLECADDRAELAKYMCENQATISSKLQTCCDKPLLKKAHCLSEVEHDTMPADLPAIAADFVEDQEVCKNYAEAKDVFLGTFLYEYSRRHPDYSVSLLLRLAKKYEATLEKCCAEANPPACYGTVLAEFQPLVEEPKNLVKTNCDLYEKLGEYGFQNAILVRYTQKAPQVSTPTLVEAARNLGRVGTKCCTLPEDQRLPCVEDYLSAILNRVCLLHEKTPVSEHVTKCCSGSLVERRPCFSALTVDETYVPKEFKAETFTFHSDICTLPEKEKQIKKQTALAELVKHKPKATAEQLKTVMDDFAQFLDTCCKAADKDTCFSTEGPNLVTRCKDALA

Q: Which ΔH [1] does the source give for “ABD-Dox (GLAEAKVLANRELDKYGVSDYYKNLINNAKTVEGVKALIDEILAALPCGGCGGCGGCGG)” here?
A: -6.72 kcal/mol

Q: What about the ΔS [1] of the same substance?
A: 41.5 Jmol^−1K^−1

Q: And the “n (binding stoichiometry)” value ([1]; independent binding site model)?
A: 1.03 and 1.0

Q: And the “binding to MSA by mobility shift” value [2]?
A: confirmed binding

Q: What about the “drug in plasma at late time point” value ([3]; 96 h after injection) of the same substance?
A: detectable in plasma even 96 h after injection

Q: And the “Area under curve (total plasma exposure)” value ([3]; i.v., 5 mg Dox Equiv. per kg BW, plasma)?
A: 2263.6 ± 44.7 µM·h

Q: What about the Elimination half-life ([3]; i.v., 5 mg Dox Equiv. per kg BW, plasma, two-compartment model) of the same substance?
A: 29.4 ± 0.8 h and 29.4 h

Q: What about the “area under the curve, fold higher than AlDox” value ([3]; mouse, in vivo) of the same substance?
A: 3 fold

Q: What about the tumor disappearance ([4]; 10 mg Dox Equiv.kg^−1 BW) of the same substance?
A: complete tumor disappearance within 2 weeks

Q: What about the “tumor recurrence in mice with eradicated tumors” value ([4]; 10 mg Dox Equiv.kg^−1 BW) of the same substance?
A: 33%

Q: And the “eradication of C26 tumors” value ([4]; 20 mg Dox Equiv.kg^−1 BW)?
A: incomplete eradication

Q: And the “mice that did not survive over the 100-day course of study” value ([4]; 20 mg Dox Equiv.kg^−1 BW)?
A: 75%

Q: What about the “recurrence of the primary tumor” value ([4]; 20 mg Dox Equiv.kg^−1 BW) of the same substance?
A: without recurrence of the primary tumor in any mice

Q: What about the “therapeutic efficacy vs AlDox in terms of overall survival” value ([4]; 20 mg Dox Equiv.kg^−1 BW) of the same substance?
A: higher

Q: And the “therapeutic efficacy vs AlDox with respect to tumor regression” value ([4]; 20 mg Dox Equiv.kg^−1 BW)?
A: equivalent

Q: And the “survival compared with free Dox (10 mgkg^−1 BW)” value [4, 5]?
A: superior efficacy

Q: What about the “tumor regression compared with free Dox (10 mgkg^−1 BW)” value [4, 5] of the same substance?
A: superior efficacy

Q: And the “survival compared with free Dox (10 mgkg^−1 BW)” value [4, 6]?
A: superior efficacy

Q: What about the “tumor regression compared with free Dox (10 mgkg^−1 BW)” value [4, 6] of the same substance?
A: superior efficacy
